These results are taken from patent US20260151425A1, “COMPOSITIONS AND METHODS OF USE THEREOF” (SYNEDGEN, INC., priority 2020, published 2026).

Bounds are passed on as bounds.

One experiment deals with NTM biofilms. Nature of the experiment: Optical measurement of biofilm thickness. Format: cell-based. The following applies: PAAG at 50, 100 and 200 μg/mL. The source says: The biofilm thickness was optically measured assuming the Refractive Index (RI) of the biofilm was equal to water per Bakke & Olsson, et al., (1986).
In experiment [1] the test system is biofilm cultures of Mycobacteria isolates. Nature of the experiment: Static biofilm assay with crystal violet staining. Format: cell-based. Particulars: 48 hour biofilms treated for an hour; increasing dose of PAAG. As for the experimental part:
(§1) Biofilm cultures of Mycobacteria isolates were grown for 48 hours in static 96-well plates at 37 C on a static incubator. The biofilm cultures were treated using PAAG alone and in formulation with 1.38% glycerol for an hour. The MBEC assay measured the logarithmic reduction in the growth of biofilm by serial dilution and spot plate method. […] The static assay was used to measure the decrease in biofilm density as the dose of PAAG increases by staining each well with crystal violet and measuring the biofilm densities at 590 nm.
The biofilm biomass was quantified using crystal violet staining in static TCP biofilm assay.

For another experiment, the system named is MABSC cultures. Nature of the experiment: Modified time kill analysis with 7-day recovery phase. It counts as cell-based, Mycobacterium abscessus complex. The following applies: PAAG 250 μg/mL. As for the experimental part: For MABSC cultures, a modified time kill analysis was performed over a period of 12 days and included a 7-day recovery phase in antimicrobial free media post treatment. PAAG treatment led to eradication of MABSC cell population within 48 hours of treatment.

The next experiment deals with MAC persister cells. Nature of the experiment: PAAG treatment of antibiotic induced NTM persisters. Format: cell-based, Mycobacterium avium complex. The text has this:
(§2) The cultures were then pelleted, washed free of antibiotics and resuspended in broth free of any antimicrobials (i.e., recovery phase).

A further experiment deals with M. gordonae NTM 0274. Nature of the experiment: MIC of CF NTM clinical isolates. Particulars: M. gordonae NTM 0274. Format: cell-based.
The test system of experiment [2] is M. avium complex NTM 0260. Briefly: MIC of CF NTM clinical isolates. Format: cell-based. Particulars: M. avium complex NTM 0260.
Experiment [3] has as its system biofilm cultures of Mycobacteria isolates. Briefly: MBEC assay, logarithmic reduction of biofilm growth. The following applies: 48 hour biofilms treated for an hour; varies from strain to strain. Format: cell-based. As for the experimental part:
as §1

For experiment [4], the system named is M. abscessus subsp. abscessus NTM 0079. Briefly: MIC of CF NTM clinical isolates. Format: cell-based. The following applies: M. abscessus subsp. abscessus NTM 0079.
Experiment [5] has as its system M. abscessus subsp. bolletii NTM 0003. Briefly: MIC of CF NTM clinical isolates. It counts as cell-based. Particulars: M. abscessus subsp. bolletii NTM 0003.
Experiment [6] relates to M. avium complex NTM 0813. Nature of the experiment: MIC of CF NTM clinical isolates. It counts as cell-based. Particulars: M. avium complex NTM 0813.
For another experiment, the system named is MABSC persister cells. Briefly: PAAG treatment of antibiotic induced NTM persisters. It counts as cell-based, Mycobacterium abscessus complex.
Text: as §2

Experiment [7] deals with M. abscessus subsp. abscessus NTM 0082. Briefly: MIC of CF NTM clinical isolates. It counts as cell-based. Particulars: M. abscessus subsp. abscessus NTM 0082.
The subject of another experiment is MAC cultures. Nature of the experiment: Modified time kill analysis with 7-day recovery phase. Format: cell-based, Mycobacterium avium complex. Particulars: PAAG 250 μg/mL. As for the experimental part:
For MAC cultures, a modified time kill analysis was performed over a period of 21 days and included a 7-day recovery phase in antimicrobial free media post treatment. PAAG treatment led to eradication of MAC cell population within 4 days of treatment.

For “poly(acetyl, arginyl) glucosamine [PAAG]”, the biofilm thickness entry in the experiment on NTM biofilms was “reduction in BCC biofilm thickness in a dose dependent manner”. Moreover, the “bacterial viability at depth in biofilm” value with NTM biofilms (depths >5-10 μm) is given as “significantly decreased bacterial viability”. The “biofilm density (crystal violet, 590 nm)” value in experiment [1] is “dose dependent reduction in the density of the bacteria”. In the experiment on MABSC cultures (time kill over 12 days), the “time to eradication of MABSC cell population” value is at most 48 h. Also, the killing outcome with MABSC cultures (rapid growing MABSC) and with MAC cultures (slow growing MAC) was “complete eradication” in each case. Moreover, the “CFU/mL after PAAG treatment of persisters” value in the experiment on MAC persister cells (MAC cultures surviving antibiotic treatment, PAAG for 10 days) is recorded as 0 CFU/mL; with MABSC persister cells (MABSC cultures surviving antibiotic treatment, PAAG for 4 days), 0 CFU/mL. The “regrowth of persisters after PAAG treatment” value is listed as “none of the persisters in either strain showed regrowth” in the experiment on MAC persister cells (MAC, recovery in fresh broth 24 days) and “none of the persisters in either strain showed regrowth” in the experiment with MABSC persister cells (MABSC, recovery in fresh broth 12 days). The MIC with M. gordonae NTM 0274 was found to be 32 mg/L; in [2], 16 mg/L; in experiment [4], 250 mg/L; in experiment [5] it was 128 mg/L; in experiment [6], 16 mg/L; in experiment [7], 250 mg/L. Moreover, the “log reduction in biofilm compared to the control” value in experiment [3] is recorded as “two to three log reduction”. In addition, in the experiment with MAC cultures (time kill over 21 days), the “time to eradication of MAC cell population” value is listed as at most 4 days.

One may read the MIC as the lowest concentration found to suppress growth.
